The values below come from patent publication US20070027184A1, “Multicyclic sulfonamide compounds as inhibitors of histone deacetylase for the treatment of disease” (KALYPSYS, INC., priority 2005, published 2007).

The subject of one assay is HDAC. The assay is described as follows: In vitro HDAC-inhibition assay (Fluor de Lys). It counts as biochemical. The procedure: This assay measures a compound's ability to inhibit acetyl-lysine deacetylation in vitro and was used as both a primary screening method as well as for IC50 determinations of confirmed inhibitors. The assay is performed in vitro using an HDAC enzyme source (e.g. partially purified nuclear extract or immunopurified HDAC complexes) and a proprietary fluorescent substrate/developer system (HDAC Quantizyme Fluor de Lys Fluorescent Activity Assay, BIOMOL). The assay is run in 1,536-well Greiner white-bottom plates using the following volumes and order of addition:
Step 1: Enzyme (2.5 ul) source added to plate (from refrigerated container)
Step 2: Compounds (50 nl) added with pin transfer device
Step 3: Fluor de Lys (2.5 ul) substrate added, incubate at RT, 30 minutes
Step 4: Developer (5 ul) solution is added (containing TSA), to stop reaction
Step 5: Plate Reader—data collection
The deacetylated fluorophore is excited with 360 nm light and the emitted light (460 nm) is detected on an automated fluorometric plate reader (Aquest, Molecular Devices).

The subject of the next assay is HDAC in cells. In words: Cellular IC50 (cellular histone hyperacetylation / differential cytotoxicity assays). It counts as cell-based. How it is done: These two secondary assays evaluates a compound's ability to inhibit HDAC in cells by measuring cellular histone acetylation levels. The cytoblot facilitates quantitative EC50 information for cellular HDAC inhibition. Transformed cell lines (e.g. HeLa, A549, MCF-7) are cultured under standard media and culture conditions prior to plating.
Cells (approx. 2,500/well) are allowed to adhere 10-24 hours to wells of a 384-well Greiner PS assay plate in media containing 1-5% serum. Cells are treated with appropriate compound and specific concentrations for 0 to 24 hours. Cells are washed once with PBS (60 ul) and then fixed (95% ethanol, 5% acetic acid or 2% PFA) for 1 minute at RT (30 ul). Cells are blocked with 1% BSA for 1 hour and washed and stained with antibody (e.g. anti-Acetylated Histone H3, Upstate Biotechnology), followed by washing and incubation with an appropriate secondary antibody conjugated to HRP or fluorophore. For luminescence assays, signal is generated using Luminol substrate (Santa Cruz Biotechnology) and detected using an Aquest plate reader (Molecular Devices).
HDAC inhibitors display differential cytotoxicity toward certain transformed cell lines. Cells are cultured according to standard ATCC recommended conditions that are appropriate to each cell type. Compounds were tested for their ability to kill different cell types (normal and transformed) using the ATPlite luminescence ATP detection assay system (Perkin Elmer). Assays are run in either 384-well or 1536-well Greiner PS plates. Cells (30 ul or 5 ul, respectively) are dispensed using either multichannel pipette for 384-well plates, or proprietary Kalypsys bulk liquid dispenser for 1536-well plates. Compounds added using proprietary pin-transfer device (500 nL or 5 nL) and incubated 5 to 30 hours prior to analysis. Luminescence is measured using Aquest plate reader (Molecular Devices).

A word on the IC50: it is the point on the concentration scale where inhibition reaches its midpoint.

`CC(=O)SCC(=O)c1ccc(NS(=O)(=O)c2ccc3c(c2)ncn3C)nc1` [Example 2]: the IC50 with HDAC and in the assay with HDAC in cells was not above 1000 nM throughout.

`CC(=O)SCC(=O)c1csc(NS(=O)(=O)c2ccc3c(c2)OCCO3)n1` [Example 17, Thioacetic acid S-{2-[2-(2,3-dihydro-benzo[1,4]dioxine-6-sulfonylamino)-thiazol-4-yl]-2-oxo-ethyl}ester] returned an IC50 with HDAC in cells of more than 1000 nM.

As to `CC(=O)SCC(=O)c1ccc(NS(=O)(=O)c2ccc3nc(N(C)CCCN(C)C)ccc3c2)nc1` [Example 23, Thioacetic acid S-[2-(6-{2-[(3-dimethylamino-propyl)-methyl-amino]-quinoline-6-sulfonylamino}-pyridin-3-yl)-2-oxo-ethyl]ester], in the assay on HDAC in cells, the IC50 was not above 1000 nM.

On to `CC(=O)SCC(=O)c1ccc(NS(=O)(=O)c2ccc3c(c2)OCCO3)cn1` [Example 3, Thioacetic acid S-{2-[5-(2,3-dihydro-benzo[1,4]dioxine-6-sulfonylamino)-pyridin-2-yl]-2-oxo-ethyl}ester], for which the IC50 with HDAC and with HDAC in cells was not above 1000 nM in each case.

As for `CC(=O)SCC(=O)c1ccc(NS(=O)(=O)c2ccc3c(c2)OCCN3C)nc1` [Example 14, Thioacetic acid S-{2-[6-(4-methyl-3,4-dihydro-2H-benzo[1,4]oxazine-7-sulfonylamino)-pyridin-3-yl]-2-oxo-ethyl}ester], the IC50 in the assay on HDAC in cells is not above 1000 nM.

Consider `O=C(O)CCSCC(=O)c1ccc(NS(=O)(=O)c2ccc3c(c2)OCCO3)nc1` [Example 9, 3-{2-[6-(2,3-Dihydro-benzo[1,4]dioxine-6-sulfonylamino)-pyridin-3-yl]-2-oxo-ethylsulfanyl}propionic acid], for which the IC50 in the assay with HDAC was more than 1000 nM.

For `O=C(CSC(=O)c1ccccc1)c1ccc(NS(=O)(=O)c2ccc3c(c2)OCCO3)nc1` [Example 12, Thiobenzoic acid S-{2-[6-(2,3-dihydro-benzo[1,4]dioxine-6-sulfonylamino)-pyridin-3-yl]-2-oxo-ethyl}ester], the IC50 with HDAC and with HDAC in cells was not above 1000 nM throughout.

With `CC(=O)SCC(=O)c1cnc(NS(=O)(=O)c2ccc3c(c2)OCCO3)nc1` [Example 7, Thioacetic acid S-{2-[2-(2,3-dihydro-benzo[1,4]dioxine-6-sulfonylamino)-pyrimidin-5-yl]-2-oxo-ethyl}ester], the IC50 was not above 1000 nM with HDAC and more than 1000 nM in the assay with HDAC in cells.

`CC(=O)SCC(=O)c1ccc(NS(=O)(=O)c2ccc3c(c2)OCO3)nc1` [Example 6, Thioacetic acid S-{2-[6-(benzo[1,3]dioxole-5-sulfonylamino)-pyridin-3-yl]-2-oxo-ethyl}ester]: the IC50 in the assay on HDAC and in the assay on HDAC in cells was not above 1000 nM throughout.

The compound `CC(=O)SCC(=O)c1ccc(NS(=O)(=O)c2ccc3nc(N4CCCN(C)CC4)ccc3c2)nc1` [Example 20, Thioacetic acid S-(2-{6-[2-(4-methyl-[1,4]diazepan-1-yl)-quinoline-6-sulfonylamino]-pyridin-3-yl}-2-oxo-ethyl)ester] returned an IC50 with HDAC in cells not above 1000 nM.

In the assay on HDAC in cells, `CC(=O)SCC(=O)c1ccc(NS(=O)(=O)c2ccc3nc(N4CCN(C)CC4)ccc3c2)nc1` [Example 19, Thioacetic acid S-(2-{6-[2-(4-methyl-piperazin-1-yl)-quinoline-6-sulfonylamino]-pyridin-3-yl}-2-oxo-ethyl)ester] returned an IC50 not above 1000 nM.

`CC(=O)SCC(=O)c1ccc(NS(=O)(=O)c2ccc3ncccc3c2)cc1` [Example 5, Thioacetic acid S-{2-oxo-2-[4-(quinoline-6-sulfonylamino)-phenyl]-ethyl}ester]: the IC50 in the assay with HDAC and in the assay on HDAC in cells was not above 1000 nM in each case.

As to `CC(=O)SCC(=O)c1ccc(NS(=O)(=O)c2ccc3nc(NCCN(C)C)ccc3c2)nc1` [Example 21, Thioacetic acid S-(2-{6-[2-(2-dimethylamino-ethylamino)-quinoline-6-sulfonylamino]-pyridin-3-yl}-2-oxo-ethyl)ester], the IC50 in the assay with HDAC in cells is not above 1000 nM.

In the case of `CN(C)CCSSCC(=O)c1ccc(NS(=O)(=O)c2ccc3c(c2)OCCO3)nc1` [Example 10, 2,3-Dihydro-benzo[1,4]dioxine-6-sulfonic acid {5-[2-(2-dimethylamino-ethyldisulfanyl)-acetyl]-pyridin-2-yl}-amide], the IC50 in the assay with HDAC and with HDAC in cells was not above 1000 nM in each case.

On to `CC(=O)SCC(=O)c1cnc(NS(=O)(=O)c2ccc3c(c2)OCCO3)s1` [Example 18, Thioacetic acid S-{2-[2-(2,3-dihydro-benzo[1,4]dioxine-6-sulfonylamino)-thiazol-5-yl]-2-oxo-ethyl}ester], for which, in the assay on HDAC in cells, the IC50 is not above 1000 nM.

Regarding `NC(CSSCC(=O)c1ccc(NS(=O)(=O)c2ccc3c(c2)OCCO3)nc1)C(=O)O` (stereo not drawn) [Example 13, 2-Amino-3-{2-[6-(2,3-dihydro-benzo[1,4]dioxine-6-sulfonylamino)-pyridin-3-yl]-2-oxo-ethyldisulfanyl}-propionic acid], the 50% inhibitory concentration (IC50) with HDAC and with HDAC in cells was not above 1000 nM each time.

`CC(=O)SCC(=O)c1ccc(NS(=O)(=O)c2ccc3nc(N(C)C)ccc3c2)nc1` [Example 24, Thioacetic acid S-{2-[6-(2-dimethylamino-quinoline-6-sulfonylamino)-pyridin-3-yl]-2-oxo-ethyl}ester] displayed an IC50 with HDAC in cells not above 1000 nM.

`CC(=O)SCC(=O)c1ccc(NS(=O)(=O)c2ccc3c(c2)OCC(C)(C)CO3)nc1` [Example 16, Thioacetic acid S-{2-[6-(3,3-dimethyl-3,4-dihydro-2H-benzo[b][1,4]dioxepine-7-sulfonylamino)-pyridin-3-yl]-2-oxo-ethyl}ester] had a half-inhibitory concentration (IC50) in the assay on HDAC in cells not above 1000 nM.

As to `CC(=O)SCC(=O)c1ccc(NS(=O)(=O)c2ccc3nc(NCCCN(C)C)ccc3c2)nc1` [Example 22, Thioacetic acid S-(2-{6-[2-(3-dimethylamino-propylamino)-quinoline-6-sulfonylamino]-pyridin-3-yl}-2-oxo-ethyl)ester], in the assay with HDAC in cells, the IC50 is not above 1000 nM.

On to `CC(=O)SCC(=O)c1ccc(NS(=O)(=O)c2ccc3c(c2)OCCCO3)nc1` [Example 15, Thioacetic acid S-{2-[6-(3,4-dihydro-2H-benzo[b][1,4]dioxepine-7-sulfonylamino)-pyridin-3-yl]-2-oxo-ethyl}ester], for which, in the assay on HDAC in cells, the IC50 is not above 1000 nM.

With `O=C(CSSCC(=O)c1ccc(NS(=O)(=O)c2ccc3c(c2)OCCO3)nc1)c1ccc(NS(=O)(=O)c2ccc3c(c2)OCCO3)nc1` [Example 8, 2,3-Dihydro-benzo[1,4]dioxine-6-sulfonic acid [5-(2-mercapto-acetyl)-pyridin-2-yl]-amide disulfide], the IC50 with HDAC and in the assay with HDAC in cells was not above 1000 nM each time.

Regarding `O=C(CS)c1ccc(NS(=O)(=O)c2ccc3c(c2)OCCO3)nc1` [Example 11, 2,3-Dihydro-benzo[1,4]dioxine-6-sulfonic acid[5-(2-mercapto-acetyl)-pyridin-2-yl]-amide], the IC50 in the assay on HDAC and with HDAC in cells was not above 1000 nM throughout.

Turning to `CC(=O)SCC(=O)c1ccc(NS(=O)(=O)c2ccc3c(c2)CCO3)nc1` [Example 4, Thioacetic acid S-{2-[6-(2,3-dihydro-benzofuran-5-sulfonylamino)-pyridin-3-yl]-2-oxo-ethyl}ester], in the assay on HDAC in cells, the IC50 was not above 1000 nM.
